In patent US10168342B2, “Lipid probes and uses thereof” (THE SCRIPPS RESEARCH INSTITUTE, priority 2015, dated 2019):

How the values were obtained:
Test in all cases: In situ competitive SILAC profiling with A-DA probe in (PMA-stimulated) A549 cells
Details in all cases: A549 cells, A-DA probe
[1] = target: T1, A-DA lipid probe targets in A549 cells (Homo sapiens, UniProt P30519)
T1 sequence (P30519 1-316): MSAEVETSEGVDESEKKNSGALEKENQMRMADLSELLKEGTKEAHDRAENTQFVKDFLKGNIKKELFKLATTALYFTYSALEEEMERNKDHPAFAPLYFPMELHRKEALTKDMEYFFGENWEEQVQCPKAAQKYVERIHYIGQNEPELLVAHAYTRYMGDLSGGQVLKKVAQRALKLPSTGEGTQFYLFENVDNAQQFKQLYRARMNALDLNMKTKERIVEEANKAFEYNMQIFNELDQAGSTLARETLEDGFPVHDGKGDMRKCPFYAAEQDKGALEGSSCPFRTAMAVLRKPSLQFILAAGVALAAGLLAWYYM

[2] = target: T2, A-DA lipid probe targets in A549 cells (Homo sapiens, UniProt Q8N5I4)
T2 sequence (Q8N5I4 1-330): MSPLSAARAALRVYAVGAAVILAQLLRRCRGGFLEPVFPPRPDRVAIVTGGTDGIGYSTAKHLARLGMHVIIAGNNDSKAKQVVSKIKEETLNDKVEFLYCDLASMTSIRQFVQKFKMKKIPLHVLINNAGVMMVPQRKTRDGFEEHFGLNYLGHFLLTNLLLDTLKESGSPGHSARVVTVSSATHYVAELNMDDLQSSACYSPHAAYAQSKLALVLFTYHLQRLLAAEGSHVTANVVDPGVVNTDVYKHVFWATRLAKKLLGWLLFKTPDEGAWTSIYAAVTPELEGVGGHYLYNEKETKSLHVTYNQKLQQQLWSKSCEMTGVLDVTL

[3] = target: T3, A-DA lipid probe targets in A549 cells (Homo sapiens, UniProt Q86XL3)
T3 sequence (Q86XL3 1-938): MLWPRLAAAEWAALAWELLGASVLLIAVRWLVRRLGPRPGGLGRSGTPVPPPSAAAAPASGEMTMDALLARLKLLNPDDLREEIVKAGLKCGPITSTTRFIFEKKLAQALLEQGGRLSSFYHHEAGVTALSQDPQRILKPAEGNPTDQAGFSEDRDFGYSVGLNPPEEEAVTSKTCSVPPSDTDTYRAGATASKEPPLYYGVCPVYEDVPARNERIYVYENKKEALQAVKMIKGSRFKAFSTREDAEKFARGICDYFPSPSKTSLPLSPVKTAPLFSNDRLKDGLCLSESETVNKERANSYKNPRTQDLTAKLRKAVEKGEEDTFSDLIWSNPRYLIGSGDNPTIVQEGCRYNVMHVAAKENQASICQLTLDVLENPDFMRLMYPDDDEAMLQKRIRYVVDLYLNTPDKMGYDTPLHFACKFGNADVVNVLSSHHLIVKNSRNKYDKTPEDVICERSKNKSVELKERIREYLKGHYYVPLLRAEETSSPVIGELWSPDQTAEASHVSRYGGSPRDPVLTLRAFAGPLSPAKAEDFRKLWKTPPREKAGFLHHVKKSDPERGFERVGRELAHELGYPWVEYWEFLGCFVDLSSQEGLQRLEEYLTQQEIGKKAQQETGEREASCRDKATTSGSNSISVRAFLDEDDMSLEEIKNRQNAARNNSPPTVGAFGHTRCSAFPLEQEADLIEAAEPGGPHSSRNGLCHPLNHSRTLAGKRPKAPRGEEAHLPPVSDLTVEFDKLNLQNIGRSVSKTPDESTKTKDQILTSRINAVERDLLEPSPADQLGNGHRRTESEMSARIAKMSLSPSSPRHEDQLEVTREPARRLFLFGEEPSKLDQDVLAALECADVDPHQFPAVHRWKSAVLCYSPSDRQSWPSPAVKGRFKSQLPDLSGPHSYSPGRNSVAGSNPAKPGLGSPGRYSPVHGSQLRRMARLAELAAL

[4] = target: T4, A-DA lipid probe targets in A549 cells (Homo sapiens, UniProt Q15738)
T4 sequence (Q15738 1-373): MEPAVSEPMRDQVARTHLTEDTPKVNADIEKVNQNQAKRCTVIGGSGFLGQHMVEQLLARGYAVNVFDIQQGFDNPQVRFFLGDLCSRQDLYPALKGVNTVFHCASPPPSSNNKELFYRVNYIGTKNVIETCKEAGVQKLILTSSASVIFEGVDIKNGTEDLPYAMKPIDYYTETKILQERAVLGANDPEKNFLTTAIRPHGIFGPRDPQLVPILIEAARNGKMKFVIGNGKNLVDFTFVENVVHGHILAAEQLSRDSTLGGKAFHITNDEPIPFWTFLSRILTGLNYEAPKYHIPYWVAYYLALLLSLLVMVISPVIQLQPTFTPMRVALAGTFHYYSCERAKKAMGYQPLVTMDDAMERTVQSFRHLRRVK

[5] = target: A-DA lipid probe targets in A549 cells (Homo sapiens, UniProt P21796)
Sequence of A-DA lipid probe targets in A549 cells (Homo sapiens, UniProt P21796) (P21796 whole entry): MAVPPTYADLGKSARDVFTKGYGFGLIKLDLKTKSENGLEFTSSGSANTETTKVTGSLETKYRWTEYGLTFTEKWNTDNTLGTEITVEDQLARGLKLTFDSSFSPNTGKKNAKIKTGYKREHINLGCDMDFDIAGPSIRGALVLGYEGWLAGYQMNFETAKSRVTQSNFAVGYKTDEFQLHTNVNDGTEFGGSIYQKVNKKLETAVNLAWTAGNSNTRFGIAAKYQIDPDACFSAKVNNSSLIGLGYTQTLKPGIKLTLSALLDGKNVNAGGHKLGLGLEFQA

[6] = target: A-DA lipid probe targets in A549 cells (Homo sapiens, UniProt Q9Y639)
Sequence of A-DA lipid probe targets in A549 cells (Homo sapiens, UniProt Q9Y639) (Q9Y639 29-398): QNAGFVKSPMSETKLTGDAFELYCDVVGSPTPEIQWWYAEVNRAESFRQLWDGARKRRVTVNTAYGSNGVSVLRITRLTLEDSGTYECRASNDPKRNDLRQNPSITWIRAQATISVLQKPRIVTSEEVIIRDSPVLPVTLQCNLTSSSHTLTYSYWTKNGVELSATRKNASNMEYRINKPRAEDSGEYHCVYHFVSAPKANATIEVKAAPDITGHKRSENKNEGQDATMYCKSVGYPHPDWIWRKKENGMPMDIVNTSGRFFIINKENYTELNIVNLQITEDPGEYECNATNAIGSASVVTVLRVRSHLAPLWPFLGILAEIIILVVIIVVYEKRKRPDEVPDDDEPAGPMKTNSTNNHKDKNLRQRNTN

[7] = target: T5, A-DA lipid probe targets in A549 cells (Homo sapiens, UniProt Q9NS69)
T5 sequence (Q9NS69 1-142): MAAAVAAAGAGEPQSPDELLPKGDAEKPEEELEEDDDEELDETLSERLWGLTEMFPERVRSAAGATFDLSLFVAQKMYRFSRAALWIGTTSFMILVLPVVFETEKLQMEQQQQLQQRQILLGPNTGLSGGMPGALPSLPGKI

Question: Which “SILAC ratio, HMOX2 (P30519)” value ([1]; competitor 25 μM) does the source give for O=C(/C=C/c1cccnc1)NCCCCC1CCN(C(=O)c2ccccc2)CC1 [FK-866, reference compound] here?
Answer: 1.3

Question: What about the “SILAC ratio, DHRSX (Q8N5I4)” value ([2]; competitor 25 μM) of the same compound?
Answer: 1.4

Question: And the “SILAC ratio, ANKLE2 (Q86XL3)” value ([3]; competitor 25 μM)?
Answer: 1.3

Question: And the “SILAC ratio, NSDHL (Q15738)” value ([4]; competitor 25 μM)?
Answer: 1.4

Question: And the “SILAC ratio, VDAC1 (P21796)” value ([5]; competitor 25 μM)?
Answer: 1.3

Question: What about the “SILAC ratio, NPTN (Q9Y639)” value ([6]; competitor 25 μM) of the same compound?
Answer: 1.4

Question: What about the “SILAC ratio, TOMM22 (Q9CPQ3)” value ([7]; competitor 25 μM) of the same compound?
Answer: 1.3

Question: With C=CCN(C)CCCCCCOc1ccc(C(=O)c2ccc(Br)cc2)c(F)c1 [Ro488071] as the compound, how does the “SILAC ratio, HMOX2 (P30519)” value ([1]; competitor 5 μM) read?
Answer: 1.3

Question: And the “SILAC ratio, HMOX2 (P30519)” value ([1]; competitor 50 μM)?
Answer: 3.4

Question: What about the “SILAC ratio, DHRSX (Q8N5I4)” value ([2]; competitor 5 μM) of the same compound?
Answer: 1.6

Question: And the “SILAC ratio, DHRSX (Q8N5I4)” value ([2]; competitor 50 μM)?
Answer: 2.7

Question: What about the “SILAC ratio, ANKLE2 (Q86XL3)” value ([3]; competitor 5 μM) of the same compound?
Answer: 1.7

Question: And the “SILAC ratio, ANKLE2 (Q86XL3)” value ([3]; competitor 50 μM)?
Answer: 3.1

Question: What about the “SILAC ratio, NSDHL (Q15738)” value ([4]; competitor 5 μM) of the same compound?
Answer: 1.5

Question: And the “SILAC ratio, NSDHL (Q15738)” value ([4]; competitor 50 μM)?
Answer: 2.5

Question: And the “SILAC ratio, VDAC1 (P21796)” value ([5]; competitor 5 μM)?
Answer: 1.4

Question: What about the “SILAC ratio, VDAC1 (P21796)” value ([5]; competitor 50 μM) of the same compound?
Answer: 3.3

Question: And the “SILAC ratio, NPTN (Q9Y639)” value ([6]; competitor 5 μM)?
Answer: 1.3

Question: What about the “SILAC ratio, NPTN (Q9Y639)” value ([6]; competitor 50 μM) of the same compound?
Answer: 3.0

Question: And the “SILAC ratio, TOMM22 (Q9CPQ3)” value ([7]; competitor 5 μM)?
Answer: 1.4

Question: And the “SILAC ratio, TOMM22 (Q9CPQ3)” value ([7]; competitor 50 μM)?
Answer: 1.4
